Target: T1, LspPae (lipoprotein signal peptidase II from Pseudomonas aeruginosa) (Pseudomonas aeruginosa, UniProt Q9HVM5)
T1 construct: made in house
T1 sequence (Q9HVM5 1-169): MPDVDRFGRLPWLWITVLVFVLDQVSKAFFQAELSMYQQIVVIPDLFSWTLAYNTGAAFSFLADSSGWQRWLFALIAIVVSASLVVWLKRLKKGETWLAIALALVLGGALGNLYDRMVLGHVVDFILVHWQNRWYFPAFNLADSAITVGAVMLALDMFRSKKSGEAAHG
Assay: Coupled gel-shift peptidase assay with proICP substrate, LspPae WT
Format: biochemical
Description: The peptidase activity of LspMrs and P. aeruginosa LspA (LspPae) was quantified in a coupled gel-shift assay developed previously for LspPae[5]. The P. aeruginosa lipoprotein pre-proICP and the first two enzymes in the bacterial lipoprotein processing pathway Lgt and LspA were expressed and purified, as described. For FRET assays LspMrs was expressed and purified as described above and LspPae was expressed and purified as described in a published protocol.
Gel-shift activity assay. For time course assays, reactions were set up containing 12 µM pre-proICP, 250 µM DOPG (Avanti Polar Lipids, Inc.) and 1.2 µM Lgt in Buffer E (50 mM Tris/HCl pH 7.5, 150 mM NaCl, 1 mM DTT, 0.02%(w/v) LMNG). The assay mixtures were incubated at 37 °C and 200 rpm for 60 min to allow Lgt catalysed conversion of pre-proICP to the LspA substrate proICP. The LspA reaction was initiated by adding 0.5 µM LspA directly to the assay mixture. At timed intervals, 20 µL samples were removed and the reaction was stopped by adding 10 µL of 4x SDS loading buffer (62.5 mM Tris/HCl pH 6.8, 2.5%(w/v) SDS, 0.002%(w/v) bromophenol blue, 0.5 M β-mercaptoethanol, 10%(v/v) glycerol). To compare the activity of wild-type and mutant LspMrs, assays were allowed to proceed for 30 min before being stopped with SDS loading buffer. […] The reactions were initiated by adding LspA and allowed to proceed for 30 min. After the reaction was stopped with SDS buffer, 10 μL aliquots were loaded on precast Mini-PROTEAN® TGX^TM gels (Bio-Rad) and run with Tris/glycine buffer (25 mM Tris/HCl pH 8.0, 250 mM glycine, 0.1%(w/v) SDS). The gels were stained using InstantBlue™ (Expedeon) Coomassie based stain and were imaged using a Bio-Rad Gel-Doc imager (Supplementary Fig. 4). Band intensities of ICP were quantified using Image Lab. Dose-response plots to determine IC50 values were generated using Prism® 5 software from GraphPad.

Structure (SMILES)	IC50 [µM]	remaining activity at 1000 µM (Log[Globomycin](M) -3, read-out: Normalized activity) [%]	remaining activity at 100 µM (Log[Globomycin](M) -4, read-out: Normalized activity) [%]	remaining activity at 50 µM (read-out: Normalized activity, Log[Myxovirescin](M) -4.30103) [%]
CCCCCC[C@H]1OC(=O)CNC(=O)[C@H]([C@H](C)O)NC(=O)[C@H](CO)NC(=O)[C@H]([C@H](C)CC)NC(=O)[C@H](CC(C)C)N(C)C(=O)[C@@H]1C [globomycin]	0.64 ± 0.16	94.2	94	
CCCC1OC(=O)C(C)CC(C)CCCCC(=O)CCCC(CC)C=CC=C(COC)CCC(O)C(O)CC(O)CNC1=O (centres unmarked) [myxovirescin, myxovirescin A1]	1.09 ± 0.34			95.7

— article PMC6952399, “Structures of lipoprotein signal peptidase II from Staphylococcus aureus complexed with antibiotics globomycin and myxovirescin” (Nature Communications, 2020)
